For one assay, the system named is HIV-1 (H9IIIB strain). In words: Cell-based HIV infection assay using a reporter (Cell-Based), MT4-GFP cells. The conditions noted are these: Human immunodeficiency virus 1, MT4-GFP cells infected with HIV-1 H9IIIB; 50% normal human serum; mean of at least two independent experiments; read-out: Cell-based IP. The essentials:
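IC50 from 4-parameter dose-response of % viral growth inhibition, using the 48 h/24 h infected-cell ratio scaled between DMSO and a protease/integrase/NNRTI triple-drug control. Assay used MT4 cells with HIV-LTR-GFP reporter, pre-infected 24 h with HIV-1 H9IIIB, in 50% normal human serum.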
Take `C[C@@H]1CNC[C@H](CCc2c(F)cccc2NC(=O)[C@@H](N)[C@@H](Cc2ccc(F)cc2)c2ccc(Cl)cc2)N1S(=O)(=O)c1ccccc1` [Example 195, (βS)-4-chloro-β-(4-fluorobenzyl)-N-(3-fluoro-2-{2-[(2S,6R)-6-methyl-1-(phenylsulfonyl)piperazin-2-yl]ethyl}phenyl)-L-phenylalaninamide]: the IC50 is 77 nM.

Consider `COC(=O)N[C@H](C(=O)Nc1cncc(F)c1CC[C@H]1CNC[C@H](C)N1S(=O)(=O)C1CC1)[C@@H](c1ccc(Cl)cc1)c1cccc(F)c1` [Example 11, Methyl ((1S,2S)-1-(4-chlorophenyl)-3-((4-(2-((2S,6S)-1-(cyclopropylsulfonyl)-6-methylpiperazin-2-yl)ethyl)-5-fluoropyridin-3-yl)amino)-1-(3-fluorophenyl)-3-oxopropan-2-yl)carbamate], for which the IC50 stood at 11 nM.

As to `COC(=O)N[C@H](C(=O)Nc1cccc(F)c1CC[C@H]1CNC[C@H](C)N1S(=O)(=O)c1ccccc1Cl)[C@@H](c1ccc(Cl)cc1)C(C)C` [Example 143, (βR)-4-chloro-N-[2-(2-{(2S,6S)-1-[(2-chlorophenyl)sulfonyl]-6-methylpiperazin-2-yl}ethyl)-3-fluorophenyl]-Nα-(methoxycarbonyl)-β-(1-methylethyl)-L-phenylalaninamide], the IC50 was determined as 570 nM.

With `COc1ccccc1S(=O)(=O)N1[C@@H](CCc2c(F)cccc2NC(=O)[C@@H](N)[C@@H](c2ccc(F)cc2)c2cc(F)cc(F)c2)CNC[C@@H]1C` [Example 238, (βS)-β-(3,5-difluorophenyl)-4-fluoro-N-[3-fluoro-2-(2-{(2S,6S)-1-[(2-methoxyphenyl)sulfonyl]-6-methylpiperazin-2-yl}ethyl)phenyl]-L-phenylalaninamide], the IC50 came out at 110 nM.

For the molecule `CC[C@H]1CNC[C@H](CCc2c(F)cccc2NC(=O)[C@@H](NC(=O)OC)[C@@H](c2ccc(F)cc2)c2cc(F)cc(F)c2)N1S(C)(=O)=O` [Example 269, (βS)-β-(3,5-difluorophenyl)-N-(2-{2-[(2S,6S)-6-ethyl-1-(methylsulfonyl)piperazin-2-yl]ethyl}-3-fluorophenyl)-4-fluoro-Nα-(methoxycarbonyl)-L-phenylalaninamide], the IC50 was 9.9 nM.

Consider `COC(=O)N[C@H](C(=O)Nc1cncc(F)c1CC[C@H]1CNC[C@H](C)N1S(C)(=O)=O)[C@@H](c1ccc(F)cc1)c1cc(F)cc(F)c1` [Example 190, (βS)-β-(3,5-difluorophenyl)-4-fluoro-N-(5-fluoro-4-{2-[(2S,6S)-6-methyl-1-(methylsulfonyl)piperazin-2-yl]ethyl}pyridin-3-yl)-Nα-(methoxycarbonyl)-L-phenylalaninamide], for which the IC50 amounted to 13 nM.

Turning to `O=C(C[C@@H](c1ccc(F)cc1)c1cc(F)cc(F)c1)Nc1cncc(F)c1CC[C@H]1CNCCN1S(=O)(=O)NCC(F)CCl` (stereo partly drawn) [Example 339, (3S)-N-[4-(2-{(2S)-1-[(3-chloro-2-fluoropropyl)sulfamoyl]piperazin-2-yl}ethyl)-5-fluoropyridin-3-yl]-3-(3,5-difluorophenyl)-3-(4-fluorophenyl)propanamide], the IC50 worked out at 40 nM.

For the molecule `COC(=O)N[C@H](C(=O)Nc1cccc(F)c1CC[C@H]1CNC[C@H](C)N1S(=O)(=O)C1CC1)[C@@H](c1ccc(Cl)cc1)c1cc(F)cc(F)c1` [Example 201, (βS)-4-chloro-N-(2-{2-[(2S,6S)-1-(cyclopropylsulfonyl)-6-methylpiperazin-2-yl]ethyl}-3-fluorophenyl)-β-(3,5-difluorophenyl)-Nα-(methoxycarbonyl)-L-phenylalaninamide], the IC50 is 16 nM.

With `CC(C)[C@H](c1cccc(Cl)c1)[C@H](N)C(=O)Nc1cccc(F)c1CC[C@H]1CNC[C@H](C)N1S(=O)(=O)C1CC1` [Example 215, (βR)-3-chloro-N-(2-{2-[(2S,6S)-1-(cyclopropylsulfonyl)-6-methylpiperazin-2-yl]ethyl}-3-fluorophenyl)-β-(1-methylethyl)-L-phenylalaninamide], the IC50 was found to be 2500 nM.

Turning to `CC(=O)N[C@H](C(=O)Nc1cncc(F)c1CC[C@H]1CNCCN1S(=O)(=O)N1CCCC1)[C@@H](c1ccc(F)cc1)c1cc(F)cc(F)c1` [Example 85, (βS)-Nα-acetyl-3,5-difluoro-β-(4-fluorophenyl)-N-(5-fluoro-4-{2-[(2S)-1-(pyrrolidin-1-ylsulfonyl)piperazin-2-yl]ethyl}pyridin-3-yl)-L-phenylalaninamide], the IC50 came out at 21 nM.

For `C[C@@H]1CNC[C@@H](CCc2c(F)cccc2NC(=O)CC(c2ccc(F)cc2)c2ccc(F)cc2)N1S(=O)(=O)c1ccccc1` [Example 91, N-(3-fluoro-2-{2-[(2R,6R)-6-methyl-1-(phenylsulfonyl)piperazin-2-yl]ethyl}phenyl)-3,3-bis(4-fluorophenyl) propanamide], the IC50 was 1700 nM.

With `O=C(Nc1cccc(F)c1CC[C@H]1CNCCN1S(=O)(=O)c1ccccc1)[C@@H](O)C(c1ccccc1)c1ccccc1` (single isomer, unassigned) [Example 364], the IC50 came to 34 nM.

As for `COC(=O)N[C@H](C(=O)Nc1cccc(F)c1CC[C@H]1CNC[C@H](C)N1S(=O)(=O)c1ccccc1Cl)C(c1cccc(F)c1)c1cccc(F)c1` [Example 138, N-[2-(2-{(2S,6S)-1-[(2-chlorophenyl)sulfonyl]-6-methylpiperazin-2-yl}ethyl)-3-fluorophenyl]-3-fluoro-β-(3-fluorophenyl)-Nα-(methoxycarbonyl)-L-phenylalaninamide], the IC50 stood at 150 nM.

Turning to `O=C(C[C@@H](c1ccc(F)cc1)c1cc(F)cc(F)c1)Nc1cncc(F)c1CC[C@H]1CNCCN1S(=O)(=O)N1CCOCC1` [Example 326, (3S)-3-(3,5-difluorophenyl)-N-(5-fluoro-4-{2-[(2S)-1-(morpholin-4-ylsulfonyl)piperazin-2-yl]ethyl}pyridin-3-yl)-3-(4-fluorophenyl)propanamide], the IC50 was found to be 8 nM.

As to `C[C@H]1CNC[C@H](CCc2c(F)cccc2NC(=O)CC(c2ccc(F)cc2)c2ccc(F)cc2)N1S(=O)(=O)c1ccccc1` [Example 92, N-(3-fluoro-2-{2-[(2S,6S)-6-methyl-1-(phenylsulfonyl)piperazin-2-yl]ethyl}phenyl)-3,3-bis(4-fluorophenyl) propanamide], the IC50 was determined as 17 nM.

Take `CC[C@@H]1CNC[C@H](CCc2c(F)cccc2NC(=O)[C@@H](N)[C@@H](c2ccc(Cl)cc2)C2CCOCC2)N1S(C)(=O)=O` [Example 265, (βR)-4-chloro-N-(2-{2-[(2S,6R)-6-ethyl-1-(methylsulfonyl)piperazin-2-yl]ethyl}-3-fluorophenyl)-β-(tetrahydro-2H-pyran-4-yl)-L-phenylalaninamide]: the IC50 came to 260 nM.

Consider `CC[C@H]1CNC[C@H](CCc2c(F)cccc2NC(=O)[C@@H](N)[C@@H](c2ccc(F)cc2)c2cc(F)cc(F)c2)N1S(C)(=O)=O` [Example 262, (βS)-β-(3,5-difluorophenyl)-N-(2-{2-[(2S,6S)-6-ethyl-1-(methylsulfonyl)piperazin-2-yl]ethyl}-3-fluorophenyl)-4-fluoro-L-phenylalaninamide], for which the IC50 came out at 25 nM.

The same assay, now with this note: MT4-GFP cells infected with HIV-1 H9IIIB; 50% normal human serum; mean of at least two independent experiments; read-out: Cell-based IP.
As for `O=C(C[C@@H](c1ccc(F)cc1)c1cc(F)cc(F)c1)Nc1cncc(F)c1CC[C@H]1CNCCN1S(=O)(=O)N1CC[C@@H](F)C1` [Example 328, (3S)-3-(3,5-difluorophenyl)-N-(5-fluoro-4-{2-[(2S)-1-{[(3S)-3-fluoropyrrolidin-1-yl]sulfonyl}piperazin-2-yl]ethyl}pyridin-3-yl)-3-(4-fluorophenyl)propanmide], the IC50 amounted to 16 nM.

These data come from patent US9840478B2 (MERCK SHARP & DOHME CORP., priority 2013, dated 2017).
